Laboratory results: patent US10774084B2, “Adenine derivatives and their use as UV-photoprotective agents” (UNIVERZITA PALACKEHO V OLOMOUCI, priority 2015, dated 2020)

Legend:
HaCaT = assay: In vitro phototoxicity test (neutral red) on HaCaT; assay type: cell-based, human
Description: Spontaneously Immortalized Aneuploid Human Keratinocyte Cell Line (HaCaT) was bought from CLS (Eppeheim, Germany) and used as an in vitro model. For all experiments the keratinocytes were seeded onto 96-well plates at a density of 1.6×10^5 cells/ml (0.2 ml per well) of growth medium (DMEM supplemented with fetal bovine serum (10%), penicillin ([…]) and streptomycin (100 U/ml)).
Test substances included compounds number 3, 9, 15 and 20. Compounds were dissolved in DMSO and then diluted in serum free medium (DMEM supplemented penicillin (100 mg/ml) and streptomycin (100 U/ml)). After 24 h incubation was growth medium changed to serum free medium containing test compound or DMSO (negative control). The final applied concentrations range was 3.9-125 μmol/l. As a control, serum free medium supplemented with appropriate concentration of DMSO (0.5%, v/v) was used. In parallel with test compound, chlorpromazine (CPZ; 0.8-50 μmol/l) was used as a known phototoxic compound. The test compound was in parallel applied on two 96-well plates with HaCaT. After 60 minutes incubation with test compound medium was discarded, cells were washed two-times with PBS and PBS supplemented with glucose (1 mg/ml) was applied. A plate was then exposed to a non-cytotoxic dose of UVA radiation (5.0 J/cm2) using a solar simulator SOL 500 (Dr. Hoenle Technology, Germany) equipped with a H1 filter transmitting wavelengths of 320-400 nm. Intensity of UVA radiation was evaluated before each irradiation by UVA-meter. A control (non-irradiated) plate was for the period of irradiation incubated in dark. After UVA exposure PBS with glucose was discarded and serum free medium was applied. After 24 hours (37° C., 5% CO2) cell damage was evaluated by neutral red (NR) incorporation into viable cells. Medium was discarded and NR solution (0.03% w/v, PBS) was applied. After 60 minutes NR solution was discarded, cells were fixed with a mixture of formaldehyde (0.5%, v/v) and CaCl2 (1%, m/v) in ratio 1:1 and then NR was dissolved in methanol (50%, v/v) with acetic acid (1%, v/v). After 5 minutes of intensive shaking absorbance was measured at 540 nm. Experiments were performed in four independent repetition with use of cells from four donors to minimize individual sensitivity of donor cells. Phototoxic effect was evaluated as % of viability of control cells that was calculated from experimental data (absorbance) according to the following equation: […]
AS . . . absorbance of sample (cells pre-incubated with test compound in serum free medium and irradiated)
AC . . . absorbance of control (cells pre-incubated with DMSO in serum free medium and irradiated)
AB . . . absorbance of background (extraction solution)

[1] = test system: Caenorhabditis elegans strain fem-1/HT17; assay: Lifespan of Caenorhabditis elegans; assay type: in vivo; details: for average lifespan / median lifespan: 25° C.; for effect on lifespan of worms (in words): Log-Rank test, Bonferroni correction
From the text: Caenorhabditis elegans is a model organism used for identification of compounds with possible beneficial effect on human aging and age-related diseases. The list of compounds that prolong the lifespan of C. elegans and are known to have beneficial effect on human health includes resveratrol, curcumin and many others. Some substances that prolong the lifespan of worms are also used in skin rejuvenating and anti-aging cosmetics, for example vitamin E, coenzyme Q10, green tea or pomegranade extracts and cytokinin kinetin. The Caenorhabditis elegans strain used in this experiment was fem-1/HT17. This strain has a heat-inducible mutation which causes all worms to develop into females when cultivated in 25° C. (13). That prevents further reproduction and contamination of the experiment with progeny. Compounds dissolved in DMSO (100 mM stock solutions) were added into fresh NGM (nematode growth medium) to the final concentration of 10 and 50 or 100 μM and pipetted onto a Petri dish. Medium with DMSO vehiculum alone and non-treated medium were used as negative control. After solidification of NGM, the plates were seeded with 100 μl of 20× concentrated overnight suspension of Escherichia coli strain OP50 in LB medium. Bacteria on plates were allowed to grow overnight in 37° C. Age synchronized young adults (obtained by hypochlorite treatment) were then pipetted onto plates. Plates were kept in 25° C. In regular time intervals (1-3 days), the plates were scanned on an Epson perfection V700 photo flatbed scanner. The number of surviving worms was established by image analysis based on comparison of several subsequent photographs and identification of moving objects. Pictures were analyzed in Fiji similarly as described here. Scripts from the original publication were slightly modified and the parameters adjusted to better suit our photo resolution and lighting. Three subsequent pictures of a plate were compared with each other. The average of the 3 resulting numbers was used to reduce the possibility of error. The overall results were then analyzed in programs OASIS and ED50v10. The statistical significance was evaluated by Log-Rank test and P-values were corrected by Bonferroni correction.

SMILES	viability of HaCaT cells (HaCaT; UVA+, 3.1 μmol/l)	viability of HaCaT cells (HaCaT; UVA−, 25 μmol/l)	HaCaT viability (HaCaT; +UVA 5.0 J/cm2, 3.9 μmol/l) [% control]	HaCaT viability (HaCaT; +UVA 5.0 J/cm2, 7.8 μmol/l) [% control]	HaCaT viability (HaCaT; +UVA 5.0 J/cm2, 15.6 μmol/l) [% control]	HaCaT viability (HaCaT; +UVA 5.0 J/cm2, 31.3 μmol/l) [% control]	HaCaT viability (HaCaT; +UVA 5.0 J/cm2, 62.5 μmol/l) [% control]	HaCaT viability (HaCaT; +UVA 5.0 J/cm2, 125 μmol/l) [% control]	HaCaT viability (HaCaT; −UVA, 3.9 μmol/l) [% control]	HaCaT viability (HaCaT; −UVA, 7.8 μmol/l) [% control]	HaCaT viability (HaCaT; −UVA, 15.6 μmol/l) [% control]	HaCaT viability (HaCaT; −UVA, 31.3 μmol/l) [% control]	HaCaT viability (HaCaT; −UVA, 62.5 μmol/l) [% control]	HaCaT viability (HaCaT; −UVA, 125 μmol/l) [% control]	average lifespan ([1]; 10 μM in NGM) [days]	median lifespan ([1]; 10 μM in NGM) [days]	average lifespan ([1]; 100 μM in NGM) [days]	median lifespan ([1]; 100 μM in NGM) [days]	effect on lifespan of worms (in words) [1]
CN(C)CCCN1c2ccccc2Sc2ccc(Cl)cc21 [chlorpromazine, reference compound]	below 80 % of control	below 70%																	
c1csc(CNc2ncnc3c2ncn3C2CCCO2)c1 (stereo not shown) [Compound 9, 6-(thiophen-2-ylmethylamino)-9-(tetrahydrofuran-2-yl)purine]			122.7	124.2	120.5	128.1	129.9	126.6	101	101.1	100.4	101.8	103.9	103.4					
Clc1nc(NCC2CCCO2)c2ncn(C3CCCO3)c2n1 (stereo not shown) [Compound 20, 2-chloro-6-(tetrahydrofuran-2-ylmethylamino)-9-(tetrahydrofuran-2-yl)purine]			104.6	112.1	110.1	121.4	125.8	125.9	103.5	102.9	104.1	108.6	110.7	110.5	12.4	11.2	11.2	10.2	significantly prolonged
Clc1nc(NCc2ccco2)c2ncn(C3CCCO3)c2n1 (stereo not shown) [Compound 15, 2-chloro-6-furfurylamino-9-(tetrahydrofuran-2-yl)purine]			116.4	119.9	119.9	118.8	115.7	104	106.5	107.4	108.6	108.6	109.2	105	11.3	9.4	13.8	10.3	
c1nc(NCC2CCCO2)c2ncn(C3CCCO3)c2n1 (stereo not shown) [Compound 1, 6-(tetrahydrofuran-2-ylmethylamino)-9-(tetrahydrofuran-2-yl)purine]															11.9	10.3	12.6	10.2	significantly prolonged
OCc1ccc(CNc2ncnc3c2ncn3C2CCCO2)o1 (stereo not shown) [Compound 3, 6-(5-hydroxymethylfuran-2-ylmethylamino)-9-(tetrahydrofuran-2-yl)purine]			103.88	111.08	107.93	118.43	120.78	124.66	100.1	100.4	102.1	107.8	106.4	109.5					
